Measurements taken from publication PMC5478271, “Chemical structure-guided design of dynapyrazoles, cell-permeable dynein inhibitors with a unique mode of action” (eLife, 2017).

Columns and labels:
CAD cells = test: Lysosome motility assay in CAD cell neurites (LysoTracker); type: cell-based, murine; conditions: for Percentage of retrograde-directed lysosomes moving slower than 25 nm/s: 60 min; for Average track length of moving particles (lysosomes): 1 min imaging, control 32 ± 11 µm
Excerpt: This bidirectional transport of lysosomes requires kinesins and dynein 1 and can be observed by imaging live cells stained with the LysoTracker dye ([Vale, 2003]; [Pu et al., 2016]). A coupling between anterograde and retrograde motion has been described for membrane-bound organelles, with disruption of dynein-driven motion blocking bi-directional organelle motility ([Barlan et al., 2013]). We imaged control solvent (0.1% DMSO) treated cells and observed bidirectional motion of LysoTracker-labelled puncta (Figure 5E,H,K, Video 5). Overlays of successive images from a time-lapse series, color-coded for displacement, reveal organelle displacements (Figure 5H–J). […] Treatment with dynapyrazole-A suppressed bidirectional motion. In particular, the percentage of retrograde-directed lysosomes moving slower than 25 nm/s increased to ~47% (3.5µM) and ~59% (5µM) while the proportion of lysosomes moving at speeds > 250 nm/s decreased to below 10% (Figure 5N). We observed equivalent effects of dynapyrazole-A on anterograde motion velocities (kymographs in Figure 5K,L and M). In control cells, lysosomes with measureable displacements had trajectories that averaged 32 ± 11 µm (Figure 5O). Dynapyrazole-A (3.5 µM, Figure 5I and L) reduced the average track length of moving particles to 15.7 ± 4.7 µm, which can be seen as white punctae that result from the overlay of multiple color-coded frames without particle translocation. A higher dose of dynapyrazole-A 5 µM) shortened the average track length of moving particles to 6.7 ± 2.7 µm (Figure 5J,M,O). […] Higher concentrations of dynapyrazole-A (15 µM) lowered intracellular ATP levels by ~70% at 3 hr (Figure 5—figure supplement 5).
CAD cells (catecholaminergic neuronal tumor cell line, RRID:CVCL_0199) were maintained in DMEM/F12 medium with 10% Fetal Bovine Serum ([Qi et al., 1997]). Cell line identity was confirmed by the morphological response to serum withdrawal (i.e. neurite formation), a previously-documented characteristic of this cell line ([Qi et al., 1997]). 24 hr before the experiment cells were plated on coverslips in serum-free medium to induce neurite formation. Cells were treated with inhibitors or control solvent (0.1% DMSO final in all experiments) for 60 min, then lysosomes were labeled with 0.1 µM (final concentration) LysoTracker Red DND-99 (Molecular Probes) and used for microscopy immediately after LysoTracker addition.
Microscopy was performed using a Nikon TE-2000 inverted microscope equipped with a LED X-Cite illuminator (Lumen Dynamics) at 37 degrees. Images were acquired with a Hamamatsu ORCA-Flash 4.0 camera driven by MetaMorph software at a rate of 1 frame per second for 1 min. Lysosome motility in neurites was analyzed using Diatrack software (http://www.diatrack.org/), particle velocities were measured from frame to frame and the total length of trajectories divided by the number of analyzed organelles was calculated for every experimental condition.

IMCD3 cells = test: Cellular ATP content (CellTiter-Glo cytotoxicity assay); type: cell-based, murine
Method: Murine inner medullary collecting duct (IMCD3) cells stably expressing mNeonGreen-IFT88 (described previously [[Ye et al., 2013]]) were maintained in DMEM/F12 supplemented with 10% FBS. Cell line identity was confirmed by the proper localization and motility of mNeonGreen IFT88 puncta, in reference to published analyses from our groups and from the work of others ([Ye et al., 2013]; [Yang et al., 2015]). Cells were seeded in a 96-well plate at a density of 5 × 10^3 cells/well. Following overnight incubation, low-serum media (0.2% FBS) containing solvent control (0.3% DMSO) or compound. At fixed time points, CellTiter-Glo 2.0 (Promega) reagent was added to the wells, mixed by pipetting, and transferred to a white, opaque 96-well plate. After a 10 min incubation, luminescence for each condition was read using a Synergy Neo plate reader (1 s integration time per well).

N#Cc1c(C2(c3ccc(Cl)cc3)CC2)nn2c1[nH]c(=O)c1cc(I)ccc12 [Compound 8, 2-[1-(4-chlorophenyl)cyclopropyl]-7-iodo-5-oxo-4H-pyrazolo[1,5-a]quinazoline-3-carbonitrile]
Proportion of lysosomes moving at speeds > 250 nm/s (CAD cells; 3.5 µM and 5 µM, control ~20%): below 10%
Percentage of retrograde-directed lysosomes moving slower than 25 nm/s (CAD cells; 3.5 µM, control ~20%): ~ 47%
Average track length of moving particles (lysosomes) (CAD cells; 3.5 µM): 15.7 ± 4.7 µm
Percentage of retrograde-directed lysosomes moving slower than 25 nm/s (CAD cells; 5 µM, control ~20%): ~ 59%
Average track length of moving particles (lysosomes) (CAD cells; 5 µM): 6.7 ± 2.7 µm
ATP levels in cells (IMCD3 cells; 5 µM, low-serum or serum-free media): stable for up to 3 hr
Lowering of intracellular ATP levels (IMCD3 cells; 15 µM, at 3 hr): ~ 70%
